Data on six molecules can be found in patent publication US9782415B2, “Substituted pyrazolo[1,5-a]pyrimidine compounds as Trk kinase inhibitors” (Array BioPharma, Inc., priority 2009, dated 2017).

Holding throughout (format): biochemical
Experiment [1] concerns the target histidine-tagged recombinant human TrkA, cytoplasmic domain (Homo sapiens (Human), UniProt P04629). Kind of experiment: TrkA ELISA Assay. The following applies: Table 1, 500 μM ATP, read-out: TrkA Enzyme IC50. How it is done:
An enzyme-linked immunosorbant assay (ELISA) was used to assess TrkA kinase activity in the presence of inhibitors. […] The assay buffer consisted of 25 mM MOPS pH 7.5, 0.005% (v/v) Triton X-100 and 5 mM MgCl2. The reaction mixture was removed from the plate by washing with PBS containing 0.1% (v/v) Tween 20. […] After the addition of 1M phosphoric acid, the chromogenic substrate color intensity was quantitated via absorbance at 450 nm.
(An ELISA detects its analyte on a solid surface through an enzyme-linked reagent.)

The next experiment has as its target Human Jak2 kinase domain (Homo sapiens (Human), UniProt O60674). Kind of experiment: Jak2 Inhibition Assay (Omnia kinase assay). From the text: The assays described in Examples C, D, E and F for the determination of JAK1, JAK2, JAK3 and Tyk2 kinase activity, respectively, utilized the Omnia® Kinase fluorescence peptide substrate-based technology (Invitrogen). The specific components of the assay mixture are described in Examples C, D and E. […] Two-μL aliquots of these were transferred to a fresh plate for a ten-fold intermediate dilution with assay buffer. […] Human Jak2 kinase domain comprising amino acids 808-1132 was purchased from Invitrogen Corporation, Carlsbad, Calif.

Experiment [2] concerns the target GST-tagged human Jak1 kinase domain (Homo sapiens (Human), UniProt P23458). Kind of experiment: Jak1 Inhibition Assay (Omnia kinase assay). Particulars: Table 2; 500 μM ATP. On the procedure: (§1) The assays described in Examples C, D, E and F for the determination of JAK1, JAK2, JAK3 and Tyk2 kinase activity, respectively, utilized the Omnia® Kinase fluorescence peptide substrate-based technology (Invitrogen). […] The reactions were therefore read at excitation 360 nm and emission was measured at 485 nm every 50 seconds for 45 minutes using a PerkinElmer EnVision Multilabel Plate Reader.
(§2) The final buffer conditions for each of the JAK1, JAK2, JAK3 and Tyk2 assays were as follows: 25 mM HEPES, pH 7.4, 10 mM MgCl2, 0.01% Triton X-100 and 1 mM DTT.
(§3) Compounds were prepared at 50× the final concentration in DMSO by conducting 3-fold serial dilutions from a 500-μM or 1000-μM intermediate dilution to give a 10-point dosing curve having a high dose of 10 or 20 μM. Two-μL aliquots of these were transferred to a fresh plate for a ten-fold intermediate dilution with assay buffer. Five-μL aliquots of the diluted compounds were then transferred to 20-μL of assay mixtures described in Examples C, D, E and F for a final concentration of DMSO of 2%. A standard or reference compound was typically included on each assay plate to validate that plate. For each plate, percent of control (POC) values were calculated for each well according to the following equation: […]
(§4) IC50's were estimated from the POC's using a standard 4-parameter logistic model: […]

The target of experiment [3] is GST-tagged human Jak3 kinase domain (Homo sapiens (Human), UniProt P52333). Put plainly: Jak3 Inhibition Assay (Omnia kinase assay). Particulars: Table 2; 500 μM ATP. How it is done: as §1, §2, §3, §4
Another experiment deals with Human Tyk2 kinase domain (Homo sapiens (Human), UniProt P29597). Kind of experiment: Tyk2 Inhibition Assay (Omnia kinase assay). Particulars: Table 2; 500 μM ATP. On the procedure: as §1, §2, §3, §4
[4] abbreviates: read-out: Jak2 Enzyme % inhibition at 1000 nM, Table 1, 1000 nM test compound.

Molecules are shown by their SMILES. Read-outs that look alike come from different tables or passages of the source. A value given as a limit tells only on which side of the number the result lay.

Sequence of Human Jak2 kinase domain (O60674 808-1132): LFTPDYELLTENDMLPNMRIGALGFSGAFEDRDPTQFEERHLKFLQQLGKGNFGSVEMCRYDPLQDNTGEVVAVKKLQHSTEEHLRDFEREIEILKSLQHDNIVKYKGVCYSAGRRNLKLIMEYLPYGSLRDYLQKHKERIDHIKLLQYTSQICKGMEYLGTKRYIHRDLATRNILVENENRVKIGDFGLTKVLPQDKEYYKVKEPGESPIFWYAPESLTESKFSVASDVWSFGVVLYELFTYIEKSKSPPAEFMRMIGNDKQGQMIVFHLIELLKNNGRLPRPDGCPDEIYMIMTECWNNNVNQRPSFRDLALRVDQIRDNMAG
Sequence of Human Tyk2 kinase domain (P29597 886-1187): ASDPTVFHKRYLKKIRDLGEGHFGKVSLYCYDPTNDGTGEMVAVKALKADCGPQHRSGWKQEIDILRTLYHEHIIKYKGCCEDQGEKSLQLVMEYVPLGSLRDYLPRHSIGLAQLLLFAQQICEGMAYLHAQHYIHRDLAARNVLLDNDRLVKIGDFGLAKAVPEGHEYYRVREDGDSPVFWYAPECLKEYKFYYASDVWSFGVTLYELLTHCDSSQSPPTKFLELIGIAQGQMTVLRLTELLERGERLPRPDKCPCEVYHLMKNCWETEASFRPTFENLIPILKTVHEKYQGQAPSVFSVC
Sequence of GST-tagged human Jak3 kinase domain (P52333 781-1124): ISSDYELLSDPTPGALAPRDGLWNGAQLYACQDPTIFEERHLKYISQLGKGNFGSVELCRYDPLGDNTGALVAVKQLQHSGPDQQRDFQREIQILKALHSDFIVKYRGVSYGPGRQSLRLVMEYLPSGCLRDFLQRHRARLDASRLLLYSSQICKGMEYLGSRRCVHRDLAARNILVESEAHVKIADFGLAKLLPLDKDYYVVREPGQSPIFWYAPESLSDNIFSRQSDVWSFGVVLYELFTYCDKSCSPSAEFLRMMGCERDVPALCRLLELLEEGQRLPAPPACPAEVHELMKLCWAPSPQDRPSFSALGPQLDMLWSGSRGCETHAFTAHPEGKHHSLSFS
Sequence of GST-tagged human Jak1 kinase domain (P23458 866-1154): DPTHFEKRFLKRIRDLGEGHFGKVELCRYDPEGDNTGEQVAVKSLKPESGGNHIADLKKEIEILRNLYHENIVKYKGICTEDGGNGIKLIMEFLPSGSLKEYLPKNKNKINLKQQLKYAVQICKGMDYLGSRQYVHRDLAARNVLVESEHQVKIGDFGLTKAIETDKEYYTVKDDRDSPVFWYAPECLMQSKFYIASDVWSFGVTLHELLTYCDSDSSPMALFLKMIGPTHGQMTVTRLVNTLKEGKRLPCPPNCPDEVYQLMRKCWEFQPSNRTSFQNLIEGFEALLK
Sequence of histidine-tagged recombinant human TrkA, cytoplasmic domain (P04629 440-796): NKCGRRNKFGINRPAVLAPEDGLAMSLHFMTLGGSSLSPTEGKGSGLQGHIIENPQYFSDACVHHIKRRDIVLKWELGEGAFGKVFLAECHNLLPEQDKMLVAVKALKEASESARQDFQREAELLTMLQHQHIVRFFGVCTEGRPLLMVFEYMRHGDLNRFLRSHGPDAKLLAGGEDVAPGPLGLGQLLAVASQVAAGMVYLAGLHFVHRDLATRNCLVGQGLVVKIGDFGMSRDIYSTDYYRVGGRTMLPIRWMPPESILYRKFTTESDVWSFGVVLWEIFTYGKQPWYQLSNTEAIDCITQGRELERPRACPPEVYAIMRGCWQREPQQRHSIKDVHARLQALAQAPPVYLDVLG

The IC50 is the point on the concentration scale where inhibition reaches its midpoint. With `Cc1ncc(F)cc1[C@H]1CCCN1c1ccn2ncc(C(=O)N[C@@H]3CCC[C@H]3O)c2n1` [Example 197, 5-((R)-2-(5-fluoro-2-methylpyridin-3-yl)pyrrolidin-1-yl)-N-((1R,2R)-2-hydroxycyclopentyl)pyrazolo[1,5-a]pyrimidine-3-carboxamide], the IC50 in experiment [1] is 0.0048 µM; at Human Jak2 kinase domain (Table 1, 500 μM ATP, >1000 nM when >50% inhibition not observed at 1000 nM, read-out: Jak2 Enzyme IC50), above 1 µM.

As a reminder, the inhibition is the change of the read-out against control, counted positive when it falls. With `O=C(N[C@@H]1C2CC[C@@H](C2)[C@@H]1CO)c1cnn2ccc(N3CCC[C@@H]3c3cncc(F)c3)nc12` [Example 138, 5-((R)-2-(5-fluoropyridin-3-yl)pyrrolidin-1-yl)-N-((2R,3S,4S)-3-(hydroxymethyl)bicyclo[2.2.1]heptan-2-yl)pyrazolo[1,5-a]pyrimidine-3-carboxamide], the inhibition at 1 µM at Human Jak2 kinase domain (read-out: Jak2 Enzyme % inhibition at 1000 nM) was 10%.

Regarding `Cc1ncc(F)cc1[C@H]1CCCN1c1ccn2ncc(C(=O)N[C@H]3CC[C@H](O)CC3)c2n1` [Example 194, 5-((R)-2-(5-fluoro-2-methylpyridin-3-yl)pyrrolidin-1-yl)-N-((trans)-4-hydroxycyclohexyl)pyrazolo[1,5-a]pyrimidine-3-carboxamide], the IC50 (in experiment [2]; in experiment [3]; against Human Tyk2 kinase domain) was above 1 µM throughout.

As to `O=C(N[C@H]1CC[C@H](O)CC1)c1cnn2ccc(N3CCC[C@@H]3c3cncc(F)c3)nc12` [Example 99, 5-((R)-2-(5-fluoropyridin-3-yl)pyrrolidin-1-yl)-N-((trans)-4-hydroxycyclohexyl)pyrazolo[1,5-a]pyrimidine-3-carboxamide], the inhibition at 1 µM on Human Jak2 kinase domain (setting [4]) amounted to 45.8%.

Turning to `COc1ncc(F)cc1[C@H]1CCCN1c1ccn2ncc(C(=O)N[C@H]3CC[C@H](O)CC3)c2n1` [Example 140, 5-((R)-2-(5-fluoro-2-methoxypyridin-3-yl)pyrrolidin-1-yl)-N-((trans)-4-hydroxycyclohexyl)pyrazolo[1,5-a]pyrimidine-3-carboxamide], at Human Tyk2 kinase domain, the IC50 is above 1 µM.

For `O=C(N[C@H]1CC[C@@H](O)CC1)c1cnn2ccc(N3CCC[C@@H]3c3cncc(F)c3)nc12` [Example 100, 5-((R)-2-(5-fluoropyridin-3-yl)pyrrolidin-1-yl)-N-((cis)-4-hydroxycyclohexyl)pyrazolo[1,5-a]pyrimidine-3-carboxamide], the inhibition at 1 µM on Human Jak2 kinase domain (setting [4]) turned out to be 13.8%.
